Measured values from patent publication US20240122180A1, “FUNGICIDAL HALOMETHYL KETONES AND HYDRATES AND THEIR MIXTURES” (FMC Corporation, priority 2020, published 2024).
Marks after values point to notes of the source that are not given here.

Key:
Format in all cases: in vivo
Details in all cases: 100 = 100% disease control
[1] = test system: Phakopsora pachyrhizi (the causal agent of Asian soybean rust); test: Test A: preventive spray on soybean seedlings, visual disease rating (100 = 100% control; * 50 ppm, ** 10 ppm, *** 250 ppm)
Outline: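 Preventive test: one day after spraying compound (acetone/water suspension, 250 ppm PEG400), seedlings received rust spore inoculum, 24 h in saturated air then 8 days in growth chamber, both at 22 °C. Disease control scored visually, 100 = complete, 0 = none, relative to untreated controls.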

[2] = test system: Puccinia recondita f. sp. tritici (the causal agent of wheat leaf rust); test: Test B: preventive spray on wheat seedlings, disease rating (100 = 100% control; * 50 ppm, ** 10 ppm, *** 250 ppm)
Outline: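 Preventive test: Puccinia recondita f. sp. tritici spores were inoculated one day after run-off spraying of wheat seedlings with test suspension (acetone/water 50/50, 250 ppm PEG400). After 24 h in saturated air and 6 days in a growth chamber, both at 20° C, control was scored 0–100 versus untreated plants.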

[3] = test system: Uncinula necator (the causal agent of grape powdery mildew); test: Test C: preventive spray on grape seedlings, disease rating (100 = 100% control; * 50 ppm, ** 10 ppm, *** 250 ppm)
Source text: (§1) General protocol for preparing test suspensions for Tests A-E: the test compounds were first dissolved in acetone in an amount equal to 3% of the final volume and then suspended at the desired concentration (in ppm) in acetone and purified water (50/50 mix by volume) containing 250 ppm of the surfactant […] (polyhydric alcohol esters). The resulting test suspensions were then used in Tests A-E.
The test solution was sprayed to the point of run-off on grape seedlings. The following day the seedlings were inoculated with a spore suspension of Uncinula necator (the causal agent of grape powdery mildew) and incubated in a growth chamber at 20° C. for 12 days, after which time disease ratings were made.
(§2) Results for Tests A-E are given in Table A. In the Table, a rating of 100 indicates 100% disease control and a rating of 0 indicates no disease control (relative to the controls). An asterisk “*” or a double asterisk “**” or a triple asterisk “***” next to the rating value indicates a 50 ppm, 10 ppm and 250 ppm test suspension was used, respectively. A dash (-) indicates the compound was not tested.

[4] = test system: Zymoseptoria tritici (the causal agent of wheat leaf blotch); test: Test D: preventive spray on wheat seedlings, disease rating (100 = 100% control; * 50 ppm, ** 10 ppm, *** 250 ppm)
Source text: as §1
The test solution was sprayed to the point of run-off on wheat seedlings. The following day the seedlings were inoculated with a spore suspension of Zymoseptoria tritici (the causal agent of wheat leaf blotch) and incubated in a saturated atmosphere at 24° C. for 48 h, and then moved to a growth chamber at 20° C. for 17 days, after which time disease ratings were made.
as §2

[5] = test system: Blumeria graminis f. sp. tritici (the causal agent of wheat powdery mildew); test: Test E: preventive spray on wheat seedlings, visual disease rating (100 = 100% control; * 50 ppm, ** 10 ppm, *** 250 ppm)
Source text: as §1
The test suspension was sprayed to the point of run-off on wheat seedlings. The following day the seedlings were inoculated with a spore dust of Blumeria graminis f. sp. tritici, (also known as Erysiphe graminis f. sp. tritici, the causal agent of wheat powdery mildew) and incubated in a growth chamber at 20° C. for 8 days, after which time visual disease ratings were made.
as §2

[6] = 10 ppm test suspension, soybean seedlings
[7] = 10 ppm test suspension, wheat seedlings
[8] = 250 ppm test suspension, grape seedlings
[9] = 250 ppm test suspension, wheat seedlings
[10] = 50 ppm test suspension, 0 = no control
[11] = 250 ppm test suspension, 0 = no control
[12] = 10 ppm test suspension, 0 = no control
[13] = 250 ppm test suspension, soybean seedlings

| Compound | Test C disease control rating [3, 8] | Test D disease control rating [4, 9] | Test E disease control rating [5, 9] | Test A disease control rating [1, 10] | Test B disease control rating [2, 10] | Test C disease control rating [3, 11] | Test D disease control rating [4, 11] | Test E disease control rating [5, 11] | other results |
| --- | --- | --- | --- | --- | --- | --- | --- | --- | --- |
| C=C(C)COC(=O)c1cnn(Cc2ccc(O/C=C(\OCC)C(F)(F)F)cc2)c1 [compound 242] | 87*** % | 27*** % | 69*** % |  |  |  |  |  | Test A disease control rating [1, 6]: 100%; Test B disease control rating [2, 7]: 0% |
| CCOC(=COc1ccc(C2CN(S(=O)(=O)CC)C2)cc1)C(F)(F)F [compound 383] |  |  |  | 0% | 0% | 74*** % | 0*** % | 0*** % |  |
| CCNC(=O)c1cnn(Cc2ccc(O/C=C(\OCC)C(F)(F)F)cc2)c1 [compound 437] |  |  |  | 77% | 0% | 77*** % | 78*** % | 69*** % |  |
| CCO/C(=C\Oc1cccc(Cn2cc(C(=O)N(CC)CC)cn2)c1)C(F)(F)F [compound 404] |  |  |  | 0% | 0% | 44*** % | 11*** % | 0*** % |  |
| CCO/C(=C\Oc1cccc(Cn2cc(C(=O)NC(C)C)cn2)c1)C(F)(F)F [compound 415] |  |  |  |  |  | 9*** % | 0*** % | 0*** % | Test A disease control rating [1, 12]: 0%; Test B disease control rating [2, 12]: 0% |
| C#CCOC(=O)c1cnn(Cc2ccc(OCC(O)(O)C(F)(F)F)cc2)c1 [compound 44] | 16*** % | 98*** % | 91*** % |  |  |  |  |  | Test A disease control rating [1, 6]: 97%; Test B disease control rating [2, 7]: 85% |
| CCO/C(=C\Oc1ccc(Cn2cc(C(=O)NC3CCCC3)cn2)cc1)C(F)(F)F [compound 428] |  |  |  |  |  | 43*** % | 2*** % | 0*** % | Test A disease control rating [1, 12]: 0%; Test B disease control rating [2, 12]: 0% |
| CCO/C(=C\Oc1cccc(Cn2cc(C(=O)NCC(F)F)cn2)c1)C(F)(F)F [compound 394] |  |  |  | 0% | 0% | 75*** % | 24*** % | 0*** % |  |
| CCO/C(=C\Oc1ccc(Cn2cc(C(=O)OCCC#N)cn2)cc1)C(F)(F)F [compound 245] | 24*** % | 18*** % | 76*** % |  |  |  |  |  | Test A disease control rating [1, 6]: 100%; Test B disease control rating [2, 7]: 0% |
| OC(O)(COc1ccc(Cn2cc(Br)cn2)cc1)C(F)(F)F [compound 322] |  |  |  |  |  | 48*** % | 100*** % | 97*** % | Test A disease control rating [1, 12]: 99%; Test B disease control rating [2, 12]: 86% |
| O=C(NCC(F)(F)F)c1csc(Cc2ccc(OCC3(C(F)(F)F)OCCO3)cc2)n1 [compound 70] | 86% | 91% | 83% |  |  |  |  |  | Test A disease control rating [1, 13]: 100%; Test B disease control rating [2, 9]: 100% |
| CCO/C(=C\Oc1ccc(Cc2ncc(C(=O)NCC(F)F)o2)cc1)C(F)(F)F [compound 255] | 93*** % | 60*** % | 64*** % |  |  |  |  |  | Test A disease control rating [1, 6]: 89%; Test B disease control rating [2, 7]: 0% |
| CCCOC(=O)c1cnn(Cc2ccc(O/C=C(\OCC)C(F)(F)F)cc2)c1 [compound 217] | 75*** % | 23*** % | 96*** % |  |  |  |  |  | Test A disease control rating [1, 6]: 100%; Test B disease control rating [2, 7]: 0% |
| CCO/C(=C\Oc1ccc(Cn2cc(C(=O)NC(C)C)cn2)cc1)C(F)(F)F [compound 118] | 77*** % | 13*** % | 76*** % |  |  |  |  |  | Test A disease control rating ([1]; 50 ppm test suspension, soybean seedlings): 100%; Test B disease control rating ([2]; 50 ppm test suspension, wheat seedlings): 0% |
| CCOC(=O)c1cnn(Cc2ccc(O/C=C(\OC(C)C)C(F)(F)F)cc2)c1 [compound 57] | 64*** % | 28% | 95*** % |  |  |  |  |  | Test A disease control rating [1, 13]: 100%; Test B disease control rating [2, 9]: 0% |
| CCO/C(=C\Oc1cccc(Cn2cc(C(=O)NCC(F)(F)F)cn2)c1)C(F)(F)F [compound 401] |  |  |  |  |  | 35*** % | 0*** % | 0*** % | Test A disease control rating [1, 12]: 0%; Test B disease control rating [2, 12]: 0% |
| N#Cc1ccc(OCC(O)(O)C(F)(F)F)cc1 [compound 142] | 19*** % | 100*** % | 99*** % |  |  |  |  |  | Test A disease control rating [1, 6]: 92%; Test B disease control rating [2, 7]: 100% |
| CCO/C(=C\Oc1ccc(Cn2cc(Br)cn2)cc1)C(F)(F)F [compound 183] | 70*** % | 66*** % | 0*** % |  |  |  |  |  | Test A disease control rating [1, 6]: 0%; Test B disease control rating [2, 7]: 0% |
| CCO/C(=C\Oc1cccc(Cn2cc(C(=O)NCC3CC3)cn2)c1)C(F)(F)F [compound 393] |  |  |  | 38% | 0% | 63*** % | 69*** % | 0*** % |  |
| CCOC(=O)c1cnn(Cc2ccc(O/C=C(\OCC)C(F)(F)F)c(Cl)c2)c1 [compound 458] |  |  |  |  |  | 25*** % | 41*** % | 94*** % | Test A disease control rating [1, 12]: 100%; Test B disease control rating [2, 12]: 0% |
| CCOC(=O)c1cnn(Cc2c(F)c(F)c(OCC(O)(O)C(F)(F)F)c(F)c2F)c1 [Compound 465] |  |  |  | 100% | 100% | 73*** % | 59*** % | 91*** % |  |
| CCOC(=O)c1cnn(-c2ccc(O/C=C(\OCC)C(F)(F)F)cc2)c1 [compound 316] |  |  |  | 100% | 9% |  |  |  | Test C disease control rating [3, 10]: 100%; Test D disease control rating [4, 10]: 2%; Test E disease control rating [5, 10]: 73% |
| CCOC(=COc1ccc(C2CN(C(C)=O)C2)cc1)C(F)(F)F [compound 373] |  |  |  | 81% | 0% | 56*** % | 99*** % | 98*** % |  |
| CCO/C(=C\Oc1ccc(Cn2cc(C(=O)OCCOC)cn2)cc1)C(F)(F)F [compound 222] | 38*** % | 17*** % | 90*** % |  |  |  |  |  | Test A disease control rating [1, 6]: 100%; Test B disease control rating [2, 7]: 0% |
| CCO/C(=C\Oc1ccc(Cn2cc(C(=O)N(CC)CC)cn2)cc1)C(F)(F)F [compound 438] |  |  |  | 73% | 0% | 59*** % | 26*** % | 98*** % |  |
| CCO/C(=C\Oc1ccc(Cn2cc(C(=O)NC3CC3)cn2)cc1)C(F)(F)F [compound 413] |  |  |  |  |  | 61*** % | 90*** % | 35*** % | Test A disease control rating [1, 12]: 0%; Test B disease control rating [2, 12]: 0% |
| CCO/C(=C\Oc1ccc(Cc2ncc(C(=O)NCC(F)F)s2)cc1)C(F)(F)F [compound 276] |  |  |  |  |  |  | 53*** % | 86*** % | Test A disease control rating [1, 12]: 13%; Test B disease control rating [2, 12]: 0%; Test C disease control rating [3, 10]: 100* % |
